Laboratory results: PubChem BioAssay AID180 (DTP/NCI, 2004)
Where “and” joins values, the source holds several entries; their conditions need not be identical. Equal entries are not always repeated.

Test system: BDF1 mice, Adenocarcinoma 755 s.c., tumor weight T/C
Test: NCI In Vivo Anticancer Drug Screen. Data for tumor model Adenocarcinoma 755 (subcutaneous) in B6D2F1 (BDF1) mice
Settings: endpoint: mean tumor weight, higher = larger tumour
Description: The antitumor activity of compounds was measured in mice bearing transplantable tumors. Survival or tumor size were measured and the results are expressed as the measurement made in the treated group (T) divided by the measurement made in the vehicle treated control group (C). The tumor model used in this assay is Adenocarcinoma 755 (subcutaneous) in B6D2F1 (BDF1) mice

[1] = dose: 100.0 mg/kg/injection, schedule: Q01DX011 (ip), vehicle: methylcellulose (MC)
[2] = dose: 100.0 mg/kg/injection, schedule: Q01DX011 (ip), vehicle: carboxymethylcellulose (CMC)

For Cc1ccc(N(O)C(=O)Nc2ccccc2)cc1, the T/C [1] was 95 % of control and the T/C (dose: 200.0 mg/kg/injection, schedule: Q01DX011 (ip), vehicle: methylcellulose (MC)) was 80 % of control.
With Nc1nc(N)c(N)c(N)n1 the T/C (dose: 50.0 mg/kg/injection, schedule: Q01DX011 (ip), vehicle: saline) was 82 % of control, the T/C (dose: 200.0 mg/kg/injection, schedule: Q01DX011 (ip), vehicle: saline) was 92 % of control and the T/C (dose: 400.0 mg/kg/injection, schedule: Q01DX011 (ip), vehicle: saline) was 90 % of control.
In the case of CN(C)[C@@H]1C(=O)C(C(=O)NCN(CCCl)CCCl)=C(O)[C@@]2(O)C(=O)C3=C(O)c4c(O)cccc4[C@@](C)(O)[C@H]3C[C@@H]12, the T/C (dose: 0.5 mg/kg/injection, schedule: Q01DX011 (ip), vehicle: methylcellulose (MC)) is reported as 111 % of control, the T/C (dose: 5.0 mg/kg/injection, schedule: Q01DX011 (ip), vehicle: methylcellulose (MC)) is reported as 98 % of control and the T/C (dose: 10.0 mg/kg/injection, schedule: Q01DX011 (ip), vehicle: methylcellulose (MC)) is reported as 44 % of control. The T/C (dose: 15.0 mg/kg/injection, schedule: Q01DX011 (ip), vehicle: saline) was 37 % of control and 60 % of control, the T/C (dose: 20.0 mg/kg/injection, schedule: Q01DX011 (ip), vehicle: methylcellulose (MC)) was 35 % of control and the T/C (dose: 60.0 mg/kg/injection, schedule: Q01DX011 (ip), vehicle: saline) was 36 % of control.
O=C1C(NC(=O)C2CCCCC2)=C(N2CC2)C(=O)C(NC(=O)C2CCCCC2)=C1N1CC1 was tested, and the T/C (dose: 43.75 mg/kg/injection, schedule: Q01DX011 (ip), vehicle: carboxymethylcellulose (CMC)) was 48 % of control, the T/C (dose: 44.0 mg/kg/injection, schedule: Q01DX011 (ip), vehicle: carboxymethylcellulose (CMC)) was 67 % of control and the T/C (dose: 44.0 mg/kg/injection, schedule: Q01DX011 (ip), vehicle: other) was 76 % of control. The T/C (dose: 87.5 mg/kg/injection, schedule: Q01DX011 (ip), vehicle: carboxymethylcellulose (CMC)) was 9 % of control and 30 % of control, the T/C (dose: 88.0 mg/kg/injection, schedule: Q01DX011 (ip), vehicle: other) was 21 % of control and the T/C [2] was 104 % of control. For the same compound, the T/C (dose: 175.0 mg/kg/injection, schedule: Q01DX011 (ip), vehicle: carboxymethylcellulose (CMC)) was 12 % of control and 33 % of control, the T/C (dose: 175.0 mg/kg/injection, schedule: Q01DX011 (ip), vehicle: other) was 28 % of control and the T/C (dose: 200.0 mg/kg/injection, schedule: Q01DX011 (oral), vehicle: carboxymethylcellulose (CMC)) was 93 % of control. The T/C (dose: 400.0 mg/kg/injection, schedule: Q01DX011 (oral), vehicle: carboxymethylcellulose (CMC)) was 50 % of control and the T/C (dose: 800.0 mg/kg/injection, schedule: Q01DX011 (oral), vehicle: carboxymethylcellulose (CMC)) was 68 % of control.
With CCCCCCCCSc1ncnc2c1ncn2CCCC the T/C (dose: 93.0 mg/kg/injection, schedule: Q01DX011 (ip), vehicle: saline) was 92 % of control, the T/C (dose: 250.0 mg/kg/injection, schedule: Q01DX011 (ip), vehicle: saline) was 97 % of control and the T/C (dose: 375.0 mg/kg/injection, schedule: Q01DX011 (ip), vehicle: saline) was 77 % of control.
In the case of Cc1cc2nc3c(=O)[nH]c(=O)nc-3n(CCO)c2cc1C, the T/C (dose: 800.0 mg/kg/injection, schedule: Q01DX011 (ip), vehicle: methylcellulose (MC)) is reported as 98 % of control and the T/C (dose: 1000.0 mg/kg/injection, schedule: Q01DX011 (ip), vehicle: methylcellulose (MC)) is reported as 95 % of control.
CC(C)CSc1nc(N)nc2c1ncn2CC(C)C was tested, and the T/C (dose: 25.0 mg/kg/injection, schedule: Q01DX011 (ip), vehicle: methylcellulose (MC)) was 21 % of control, the T/C (dose: 50.0 mg/kg/injection, schedule: Q01DX011 (ip), vehicle: methylcellulose (MC)) was 12 % of control and the T/C [1] was 1 % of control.
CCOC(O)C(F)(F)F (stereo not given) was tested, and the T/C (dose: 22.0 mg/kg/injection, schedule: Q01DX011 (ip), vehicle: methylcellulose (MC)) was 110 % of control, the T/C (dose: 25.0 mg/kg/injection, schedule: Q01DX011 (ip), vehicle: carboxymethylcellulose (CMC)) was 83 % of control and the T/C (dose: 44.0 mg/kg/injection, schedule: Q01DX011 (ip), vehicle: methylcellulose (MC)) was 78 % of control. The T/C (dose: 50.0 mg/kg/injection, schedule: Q01DX011 (ip), vehicle: carboxymethylcellulose (CMC)) was 50 % of control, the T/C (dose: 88.0 mg/kg/injection, schedule: Q01DX011 (ip), vehicle: methylcellulose (MC)) was 30 % of control and the T/C [2] was 32 % of control.
For Nc1nc(N)c(N=O)c(Nc2ccc(I)cc2)n1, the T/C (dose: 0.5 mg/kg/injection, schedule: Q01DX011 (ip), vehicle: carboxymethylcellulose (CMC)) was 70 % of control, the T/C (dose: 1.0 mg/kg/injection, schedule: Q01DX011 (ip), vehicle: carboxymethylcellulose (CMC)) was 79 % of control and 80 % of control and the T/C (dose: 2.0 mg/kg/injection, schedule: Q01DX011 (ip), vehicle: carboxymethylcellulose (CMC)) was 62 % of control. For the same compound, the T/C (dose: 8.0 mg/kg/injection, schedule: Q01DX011 (ip), vehicle: carboxymethylcellulose (CMC)) was 34 % of control and 54 % of control and 59 % of control, the T/C (dose: 32.0 mg/kg/injection, schedule: Q01DX011 (ip), vehicle: carboxymethylcellulose (CMC)) was 25 % of control and 28 % of control and 40 % of control and the T/C (dose: 64.0 mg/kg/injection, schedule: Q01DX011 (ip), vehicle: carboxymethylcellulose (CMC)) was 17 % of control. The T/C (dose: 128.0 mg/kg/injection, schedule: Q01DX011 (ip), vehicle: carboxymethylcellulose (CMC)) was 10 % of control.
In the case of COc1cc(/C=N/Nc2nc3c([nH]2)c(=O)n(C)c(=O)n3C)ccc1O, the T/C (dose: 30.0 mg/kg/injection, schedule: Q01DX011 (ip), vehicle: carboxymethylcellulose (CMC)) is reported as 91 % of control and the T/C (dose: 120.0 mg/kg/injection, schedule: Q01DX011 (ip), vehicle: carboxymethylcellulose (CMC)) is reported as 119 % of control.
